The values that follow come from patent US20230173089A1, “Q-ER PEPTIDE” (Biotempt B.V., priority 2019, published 2023).

Assay [1] has as its system colonic inflammation induced by dextran sulfate sodium (DSS). The conditions noted are these: Gln supplementation; cited from earlier work.
A further assay deals with mTOR. To be noted: cited from earlier work.
Assay [2] deals with high-dose lipopolysaccharide induced inflammation. The conditions noted are these: previous study; cited from earlier work.
Assay [3] relates to male C57B1/6N mice with renal ischemia/reperfusion injury. The conditions noted are these: cited from earlier work.
Assay [4] concerns healthy volunteers given E. coli endotoxin. To be noted: cited from earlier work.
The test system of assay [5] is allogenic kidney transplantation recipients. To be noted: 50 mg/kg twice daily i.p.; cited from earlier work.
Assay [6] deals with non-obese diabetic (NOD) mouse. In words: type 1 diabetes development in NOD mice. The class given is in vivo. To be noted: 250 µg i.p. three times per week, female NOD mice from 14 weeks, max five weeks. From the text:
The non-obese diabetic (NOD) mouse spontaneously develops type 1 diabetes (T1D) and has served as a model for understanding the genetic and immunological basis, and treatment, of T1D. NOD mice are used in these studies. Most diabetic NOD mice suffer from insulin deficiency diabetes, with the underlying cause of the pancreatic beta-cell loss or destruction most likely a result of an inflammatory process in the micro-vasculature surrounding endocrine beta-cell tissues and genetically accelerated autoimmunity is suspected. Diabetes is assessed by measurement of the venous blood glucose level using an Abbott Medisense Precision glucometer. Mice are considered diabetic after two consecutive glucose measurements ≥11 mmol/l (200 mg/dl). Onset of diabetes is dated from the first consecutive reading of ≥11 mmol/l. In vivo treatment: groups of 14 weeks-old female NOD mice (n=12 per group) are treated with synthetic peptide SEQ ID NO:5 (AQGVAPG), SEQ ID NO:6 (LQGVAPG), SEQ ID NO:7 (AQGVLPG), SEQ ID NO:8 (LQGVLPG) or vehicle (PBS), respectively. Treatment is done by injecting 250 µg peptide diluted in PBS three times per week intraperitoneally (i.p.). Control mice are treated with PBS only. The treatment is discontinued when all PBS treated NOD mice in the experiment have developed diabetes. This is generally at the age of 19 weeks. The peptide and PBS treatments are done for a maximum of five weeks. In instances of hyperglycaemia of ≥20 mmol/l the mice are killed to avoid prolonged discomfort. The remainder mice are kept alive up to the age of 35 weeks without any further treatment.

In assay [7] the test system is Wistar rats with hemorrhagic shock. Description: hemorrhagic shock and resuscitation in rats (Example 15, SIRS). Type of assay: in vivo, rat. The conditions noted are these: single injection 30 minutes after induction of hemorrhagic shock. On the procedure:
Severe hemorrhagic shock followed by resuscitation induces a massive inflammatory response, which may culminate into systemic inflammatory response syndrome, multiple organ dysfunction syndrome and finally death. Treatments that effectively prevent this inflammation are limited so far. […] Considering this powerful anti-inflammatory effect, it was investigated whether administration of 0.5 ml i.p. of synthetic heptapeptide SEQ ID NO:5 (AQGVAPG), SEQ ID NO:6 (LQGVAPG), SEQ ID NO:7 (AQGVLPG), SEQ ID NO:8 (LQGVLPG), dissolved in 0.9% NaCl at a concentration of 25 mg/ml, or vehicle (0.9% NaCl), respectively, during the SIRS-phase of hemorrhagic shock, is able to attenuate the inflammatory response associated with this condition.
Hemorrhagic shock is induced in groups of 6 rats for 60 minutes by blood withdrawal until a mean arterial pressure of 40 mmHg is reached. Thirty minutes after induction of hemorrhagic shock, rats received a single injection with one of synthetic heptapeptide SEQ ID NO:5 (AQGVAPG), SEQ ID NO:6 (LQGVAPG), SEQ ID NO:7 (AQGVLPG), SEQ ID NO:8 (LQGVLPG), or 0.9% NaCl solution, as control. Treatment with synthetic heptapeptide SEQ ID NO:5 (AQGVAPG), SEQ ID NO:6 (LQGVAPG), SEQ ID NO:7 (AQGVLPG), SEQ ID NO:8 (LQGVLPG) prevents systemic release of TNF-α and IL-6 and is associated with reduced TNF-α, IL-6 and E-selectin mRNA transcript levels in the liver, with reduced neutrophil infiltration into the liver and is associated with reduced liver damage.
Animals. Adult male specific pathogen-free Wistar rats weighing 350-400 g are used. Rats are housed under barrier conditions at 25° C. with a twelve-hour light/dark cycle, and are allowed food and water ad libitum. The experimental protocol adheres to the rules laid down in national law that serves the implementation of “Guidelines on the protection of experimental animals” by the Council of Europe (1986), Directive 86/609/EC. hCG-related synthetic oligopeptides. Rats are food deprived overnight before the start of the experiment, but are allowed water ad libitum. Rats are anesthetized using a mixture of N2 O/O2 /isoflurane (Pharmachemie B.V., Haarlem, The Netherlands). Body temperature is continuously maintained at 37.5° C. by placing the rats on a thermo controlled “half-pipe” (UNO, Rotterdam, The Netherlands). Endotracheal intubation is performed, and rats are ventilated at 60 breaths per minute with a mixture of N2 O/O2 /isoflurane. Polyethylene tubes (PE-50, Becton Dickinson; St. Michielsgestel, The Netherlands) are flushed with heparin and placed via the right carotid artery in the aorta and in the right internal jugular vein. A 5 cm midline laparotomy is performed and a supra pubic catheter is inserted to monitor urine production. Hemorrhagic shock is induced by blood withdrawal, reducing the circulating blood volume until a mean arterial pressure (MAP) of 40 mmHg is reached. This level of hypotension is maintained for 60 minutes. Thirty minutes after the induction of hemorrhagic shock, rats received a single intravenous (IV) bolus injection of heptapeptide solution or vehicle. Sixty minutes after induction of hemorrhagic shock, rats are resuscitated by four times their shed blood volume over a period of 30 minutes to normalize the MAP, and monitored for another 120 minutes after which they are sacrificed. The rats receive no heparin before or during the experiment. Sham animals are subjected to the same surgical procedure as the hemorrhagic shock animals, but without blood withdrawal and administration of heptapeptide.

The test system of assay [8] is murine polymicrobial sepsis model. The conditions noted are these: cited from earlier work.
Assay [9] relates to Streptozotocin-induced diabetic rats. Description: renal function and urinary protein leakage in streptozotocin-induced diabetic rats. To be noted: 140 minutes i.v. infusion, 5 nmol x min(-1) x kg(-1) body wt. Type of assay: in vivo, rat. As to the method: Acute effects of 140 minutes i.v. infusion of heptapeptide with SEQ ID NO:8 (LQGVLPG; 5 nmol x min(-1) x kg(-1) body wt) on renal function and urinary protein leakage are studied in anesthetized diabetic male rats two weeks after streptozotocin injection without insulin treatment. Streptozotocin-induced diabetic rats are studied with (N = 12) and without heptapeptide (N = 11) treatment. The two groups show a similarly elevated blood glucose concentration during the study. Age-matched normal rats serve as controls (N = 5). Glomerular filtration rate (GFR) is measured by inulin clearance in the basal state and during a 60-minute glycine infusion (0.22 mmol x min(-1) x kg(-1) body wt)-resembling a protein load challenge-to test the renal functional reserve in all three groups.
In the basal state, the non-heptapeptide-treated diabetic rats display increased GFR and increased total protein leakage when compared with normal rats. Whereas normal rats respond to glycine infusion with an increase in GFR, no increase occurs in diabetic rats not treated with heptapeptide. In diabetic rats given heptapeptide, this reduces the initial glomerular hyperfiltration prior to glycine infusion. […] Thus, short-term infusion of heptapeptide has beneficial effects on protein leakage and hyperfiltration and improves the renal functional reserve in rats.

Read-outs that look alike come from different tables or passages of the source.

With `NC(=O)CC[C@H](N)C(=O)O` [L-Glutamine], the “degree of microscopic injury induced by dextran sulfate sodium (DSS)” value in [1] was “attenuated”. Besides, the “activity as activators of mTOR or inhibitors of autophagy compared with other amino acids” value in the assay on mTOR (alone or in combination) is given as “more potent”. The “mTOR associated autophagic inhibitory effects on human cells” value in the assay on mTOR (human cells) is “most prominent”.
As for “AQGV (Immunomodulatory peptide) [SEQ ID NO:2, synthetic linear glutamine-containing tetrapeptide derived from beta-human chorionic gonadotropin]”, the “inflammatory response and mortality following high-dose lipopolysaccharide” value in [2] is “inhibit”. Also, the “survival after IRI” value in [3] (20-50 mg/kg twice daily i.p. for four days, started 24 hours after IRI) is reported as “markedly improved”. Also, the “CTGF up-regulation (marker of post-ischemic fibrosis) in renal tissue” value in assay [3] (four weeks after IRI) was “significantly less”. The “tubular epithelial cell proliferation” value in assay [3] (mouse, in vivo) is “significantly enhanced”. For the same compound, the acute tubular injury result in assay [3] (two days after IRI) was “diminished”. Besides, the “endotoxin induced increase in plasma levels of IL-6, IL-8, IL-1RA, MCP-1, MIP-1α, MIP-1β and VCAM-1” value in assay [4] (180 mg/kg (highest dose)) is listed as “significant attenuation”; in assay [4] (lower doses (30, 90 mg/kg)) it was “not with the lower doses tested”. In addition, the “fever and flu-like symptoms” value in [4] (highest dose (180 mg/kg)) is listed as “reduced”. The “renal function and allograft survival” value in assay [5] is “improved”.
In the case of “AQGVAPG (Immunomodulatory peptide) [SEQ ID NO:5]”, the “beta-cell failure with diabetes development (occurrence of diabetes after the age of 17 weeks)” value (from here on “beta-cell failure”) in assay [6] is listed as “significantly reduces”. In [7], the “TNF-α, IL-6 and E-selectin mRNA transcript levels in the liver” value is recorded as “reduced”; the liver damage result was “reduced”; the “neutrophil infiltration into the liver” value is “reduced”; the “systemic release of TNF-α and IL-6” value is recorded as “prevents”.
In the case of “AQGVLPG (Immunomodulatory peptide) [SEQ ID NO:7]”, in assay [6], the “beta-cell failure” value was “significantly reduces”. In [7], the “TNF-α, IL-6 and E-selectin mRNA transcript levels in the liver” value is “reduced”; the liver damage result is reported as “reduced”; the “neutrophil infiltration into the liver” value is listed as “reduced”; the “systemic release of TNF-α and IL-6” value is reported as “prevents”.
For “LQGV (Immunomodulatory peptide) [SEQ ID NO:1, synthetic linear glutamine-containing tetrapeptide derived from beta-human chorionic gonadotropin]”, the “inflammatory response and mortality following high-dose lipopolysaccharide” value in [2] is reported as “inhibit”. The “survival during the first 5 days after moderate cecal ligation and puncture” value in [8] (5 mg/kg bodyweight, control 20%) is listed as 50%. The “survival in severe cecal ligation and puncture model” value in [8] (5 mg/kg combined with fluid resuscitation and antibiotics, fluid resuscitation and antibiotics alone 30%) is reported as 70%. For the same compound, the “cytokine and E-selectin levels in peritoneal lavage fluid, lungs and plasma” value in assay [8] (moderate cecal ligation and puncture, 5 mg/kg) is on record as “reduced”. The “pulmonary nuclear factor-κB activation and pulmonary damage” value in [8] (mouse, in vivo) was “reduced”.
“LQGVAPG (Immunomodulatory peptide) [SEQ ID NO:6]”: the “beta-cell failure” value in assay [6] is recorded as “significantly reduces”. Besides, in assay [7], the “TNF-α, IL-6 and E-selectin mRNA transcript levels in the liver” value was “reduced”; the liver damage result is given as “reduced”; the “neutrophil infiltration into the liver” value was “reduced”; the “systemic release of TNF-α and IL-6” value was “prevents”.
On to “LQGVLPG (Immunomodulatory peptide) [SEQ ID NO:8]”, for which, in assay [6], the “beta-cell failure” value is “significantly reduces”. In assay [7], the “TNF-α, IL-6 and E-selectin mRNA transcript levels in the liver” value is given as “reduced”; the liver damage entry is listed as “reduced”; the “neutrophil infiltration into the liver” value is listed as “reduced”; the “systemic release of TNF-α and IL-6” value is given as “prevents”. Besides, in [9], the “initial glomerular hyperfiltration (GFR) prior to glycine infusion” value is “reduces”, the “renal functional reserve (GFR response to glycine infusion)” value was “restores normal” and the “total protein leakage compared with rats not given heptapeptide” value was “lower”.
